Source: US20050043515A1, “Tobacco-specific nitrosamine detection assays and reagents” (priority 2003, published 2005)
Like-named read-outs stand apart in the source and are kept apart here.

Columns and labels:
[1] = system: monoclonal antibody 245J15; assay: Competitive ELISA for total TSNAs using monoclonal antibody 245J15; type: binding, mice
Procedure: (§1) Microtiter plates (Nunc, Maxisorp) were coated by adding 100 μl per well of goat anti mouse IgG Fc specific (Jackson Immunoresearch, West Grove, Pa.) at 2.5 micrograms per milliliter (μg/ml) in phosphate buffered saline (Sigma Chemical Co.) and allowing the solution to sit overnight. The next day, contents were discarded and unreacted sites on the plastic wells were blocked with 300 μl per well of PBT (1% Bovine Serum Albumen (Sigma Chemical Co.), 0.05% Tween 20 (Sigma Chemical Co.) in PBS) for one hour. Contents were again discarded and 100 μl was added per well of a 1/10,000 dilution of hybridoma culture supernatant of monoclonal antibody 245B5. Wells were then incubated one hour at room temperature. Contents of the wells were again discarded and wells washed three times with PBS with 0.05% Tween (PT). Aliquots containing 50 μl of test compounds diluted in PBT were added to the wells in duplicate, followed in less than five minutes by 50 μl of NNK conjugated to horseradish peroxidase (5 μg of horseradish peroxidase/ml). Wells were incubated for one hour at room temperature, after which they were washed six times with PT and excess liquid removed by tapping. A 100 μl aliquot of a peroxide/3,3′,5,5′-tetramethylbenzidine substrate/chromagen (Catalog # TMBUS, Moss Corporation, Pasadena, Md.) was added. Color was read at 650 nm after fifteen minutes in a microplate reader (SpectraMax Plus, Molecular Devices, Sunnyvale, Calif.). The presence of a TSNA reactive with monoclonal antibody 245B5 caused a decrease in the strength of the color signal.
A total TSNA assay was developed for monoclonal antibody 245J15.
Each analyte was obtained from the source identified in Example 3.
(§2) The affinity of monoclonal antibodies 245B5 and 245J15 to the N-nitroso group on compounds was evaluated using the immunoassay of Example 3 and the immunoassay of Example 4. Parent compounds lacking nitroso groups but having secondary amine groups were run in the immunoassays as previously described. Identical immunoassays were also conducted for compounds that were identical with the parent compounds except that for the addition of the nitroso group to the secondary amine in the compounds. NNN, NAT, and NAB are all examples of TSNAs. N-nitrosopyrollidine may be found in tobacco smoke, but is not a TSNA.

[2] = system: monoclonal antibody 245B5; assay: Competitive ELISA for NNK using monoclonal antibody 245B5; type: binding, mice; settings: for % Crossreactivity: NNK amount for 50% inhibition divided by test compound amount, x100
Procedure: as §1
TSNAs were purchased from Toronto Research Chemicals. […] The y-axis is B/Bo, which is the amount of color at 650 nm obtained in the presence of the compound divided by the amount of color obtained when no competing compound is present.
as §2

[3] = system: rabbit antisera raised against NNK oxime derivative conjugates; type: binding, New Zealand White Rabbits; settings: one rabbit; for Crossreactivity at the 50% point: relative to NNK
Procedure: NNK oxime derivatives were prepared and conjugated to KLH and BSA as described in Example 1. The conjugates were diluted in complete Freund's adjuvant to prepare a 1:1 solution of conjugate:adjuvant. New Zealand White Rabbits (6 to 12 months of age) were immunized by injection with the suspension. Rabbits received two booster injections of the same conjugate/adjuvant at one month and two months after initial injection. At three months time, point test bleeds were tested against microtiter plates coated with oxime-derivatized NNK prepared and conjugated to ovalbumen using procedures described in Example 1.
All of these rabbits were used individually to produce competitive assays, as described in Example 3, with the exceptions that a 1:250,000 dilution of antisera in PBT was substituted for the supernatant and the microtiter plates were first coated with goat anti rabbit IgG (Catalog # 115-005-008, Jackson Immunoresearch, West Grove, Pa.) rather than goat anti mouse IgG. All other details were the same.

[4] = Antibody 245J15, NNK amount for 50% inhibition divided by test compound amount, x100
[5] = Antibody 245J15, read-out: 50% Inhibition at: M
[6] = 0.5 B/Bo, read-out: 50% Inhibition at: M
[7] = Table 3, parent compound vs N-nitroso derivative, read-out: 50% Inhibition at
[8] = Table 4, Antibody 245J15, parent compound vs N-nitroso derivative, read-out: 50% Inhibition at

## O=C(O)C1CCCCN1 (racemic) [DL-Pipecolinic Acid]
[1]; Antibody 245J15
  50% Inhibition at: ppm: 13630.2 ppm
[1]; [4]
  % Crossreactivity: 0%

## CN1CCCCC1CO (centres unmarked) [1-Methyl-2-piperidinemethanol]
[1]; Antibody 245J15
  50% Inhibition at: ppm: 781.4 ppm
[1]; [4]
  % Crossreactivity: 0.008%
[1]; [5]
  IC50: 6000 µM

## CN1CCCC1CCO (centres unmarked) [1-Methyl-2-pyrrolidineethanol]
[1]; Antibody 245J15
  50% Inhibition at: ppm: 1264.4 ppm
[1]; [4]
  % Crossreactivity: 0.005%
[1]; [5]
  IC50: 9800 µM

## CN1CCC(O)C1 (centres unmarked) [1-Methyl-3-pyrrolidinol]
[1]; Antibody 245J15
  50% Inhibition at: ppm: 92.7 ppm
[1]; [4]
  % Crossreactivity: 0.065%
[1]; [5]
  IC50: 920 µM

## O=C1CCCN1 [2-Pyrrolidinone]
[1]; Antibody 245J15
  50% Inhibition at: ppm: 2594 ppm
[1]; [4]
  % Crossreactivity: 0.002%
[1]; [5]
  IC50: 30000 µM

## Cl.OC1CCCNC1 (centres unmarked) [3-Hydroxypiperidine hydrochloride]
[1]; Antibody 245J15
  50% Inhibition at: ppm: 17492.7 ppm
[1]; [4]
  % Crossreactivity: 0%

## OC1CCNC1 (centres unmarked) [3-Pyrrolidinol]
[1]; Antibody 245J15
  50% Inhibition at: ppm: 5373.9 ppm
[1]; [4]
  % Crossreactivity: 0.001%
[1]; [5]
  IC50: 62000 µM

## Cl.OC1CCNCC1 [4-Hydroxypiperidine hydrochloride]
[1]; Antibody 245J15
  50% Inhibition at: ppm: 12282.5 ppm
[1]; [4]
  % Crossreactivity: 0%
[1]; [5]
  IC50: 89000 µM

## OC[C@H]1CCCN1 [(R)-(−)-2-Pyrrolidine-methanol]
[1]; Antibody 245J15
  50% Inhibition at: ppm: 1898.1 ppm
[1]; [4]
  % Crossreactivity: 0.003%
[1]; [5]
  IC50: 19000 µM

## OC[C@@H]1CCCN1 [(S)-(+)-2-Pyrrolidine-methanol]
[1]; Antibody 245J15
  50% Inhibition at: ppm: 996.7 ppm
[1]; [4]
  % Crossreactivity: 0.006%
[1]; [5]
  IC50: 9900 µM

## c1cncc([C@@H]2CCCCN2)c1 [Anabasine]
[2]; 0.5 B/Bo
  50% Inhibition at: Ppm: >200 Ppm
[2]; [6]
  IC50: > 1000 µM
[2]
  % Crossreactivity: <0.0002%
[2]; [7]
  IC50: > 1000 µM
[1]; Antibody 245J15
  50% Inhibition at: ppm: 214.9 ppm
[1]; [4]
  % Crossreactivity: 0.028%
[1]; [5]
  IC50: 1300 µM
[1]; [8]
  IC50: 1300 µM

## C1=CCC(c2cccnc2)NC1 (centres unmarked) [Anatabine]
[2]; 0.5 B/Bo
  50% Inhibition at: Ppm: 311.06 Ppm
[2]; [6]
  IC50: 1900 µM
[2]
  % Crossreactivity: 0.0004%
[2]; [7]
  IC50: 1900 µM
[1]; Antibody 245J15
  50% Inhibition at: ppm: 8.3 ppm
[1]; [4]
  % Crossreactivity: 0.7%
[1]; [5]
  IC50: 52 µM
[1]; [8]
  IC50: 52 µM

## CCCCNCCCC [Dibutylamine]
[2]; [7]
  IC50: > 50000 µM
[1]; [8]
  IC50: > 50000 µM

## CN1CCCC[C@H]1c1cccnc1 [Methyl Anabasine]
[2]; 0.5 B/Bo
  50% Inhibition at: Ppm: 271.90 Ppm
[2]; [6]
  IC50: 1600 µM
[2]
  % Crossreactivity: 0.0005%
[1]; Antibody 245J15
  50% Inhibition at: ppm: 30.2 ppm
[1]; [4]
  % Crossreactivity: 0.2%
[1]; [5]
  IC50: 180 µM

## CCCCN(CCCC)N=O [N-Nitrosodibutylamine]
[2]; [7]
  IC50: 16000 µM
[1]; [8]
  IC50: 10000 µM

## O=NN1CCCC1 [N-Nitrosopyrrolidine]
[2]; [7]
  IC50: 3000 µM
[1]; [8]
  IC50: 5000 µM

## O=NN1CCCC[C@H]1c1cccnc1 [NAB, N-nitrosoanabasine]
[3]
  Crossreactivity at the 50% point: 1.6%
[2]; 0.5 B/Bo
  50% Inhibition at: Ppm: 1.35 Ppm
[2]; [6]
  IC50: 7.1 µM
[2]; [7]
  IC50: 7.1 µM
[1]; Antibody 245J15
  50% Inhibition at: ppm: 0.72 ppm
[1]; [4]
  % Crossreactivity: 8.3%
[1]; [5]
  IC50: 3.8 µM
[1]; [8]
  IC50: 3.8 µM

## O=NN1CC=CC[C@H]1c1cccnc1 [NAT, N-nitrosoanatabine]
[3]
  Crossreactivity at the 50% point: 1.7%
[2]; 0.5 B/Bo
  50% Inhibition at: Ppm: 0.35 Ppm
[2]; [6]
  IC50: 1.8 µM
[2]; [7]
  IC50: 1.8 µM
[1]; Antibody 245J15
  50% Inhibition at: ppm: 0.13 ppm
[1]; [4]
  % Crossreactivity: 46.3%
[1]; [5]
  IC50: 0.68 µM
[1]; [8]
  IC50: 0.68 µM

## CN(N=O)C(CCC=O)c1cccnc1 (centres unmarked) [NNA, 4-(methylnitrosamino)4-(3-pyridyl)butanal]
[2]; 0.5 B/Bo
  50% Inhibition at: Ppm: 18.00 Ppm
[2]; [6]
  IC50: 87 µM
[2]
  % Crossreactivity: 0.0075%
[1]; Antibody 245J15
  50% Inhibition at: ppm: 0.56 ppm
[1]; [4]
  % Crossreactivity: 10.8%
[1]; [5]
  IC50: 2.7 µM

## CN(CCCC(O)c1cccnc1)N=O (centres unmarked) [NNAL, 4-(methylnitrosamino)-1-(3-pyridyl)-1-butanol]
[2]; 0.5 B/Bo
  50% Inhibition at: Ppm: 0.06923 Ppm
[2]; [6]
  IC50: 0.33 µM
[1]; Antibody 245J15
  50% Inhibition at: ppm: 0.05 ppm
[1]; [4]
  % Crossreactivity: 129.6%
[1]; [5]
  IC50: 0.22 µM

## CN(CCCC(=O)c1cccnc1)N=O [NNK, 4-(methylnitrosamino)-1-(3-pyridyl)-1-butanone]
[3]; 1:250,000 dilution of antisera
  sensitivity at the 50% inhibition point: 0.1 μg NNK per ml
[2]; 0.5 B/Bo
  50% Inhibition at: Ppm: 0.00135 Ppm
[2]; [6]
  IC50: 0.0065 µM
[2]
  % Crossreactivity: 100.00%
[1]; Antibody 245J15
  50% Inhibition at: ppm: 0.06 ppm
[1]; [4]
  % Crossreactivity: 100%
[1]; [5]
  IC50: 0.29 µM

## CN1CCCC1c1cccnc1 (centres unmarked) [Nicotine]
[3]
  Crossreactivity at the 50% point: 0.024%
[2]; 0.5 B/Bo
  50% Inhibition at: Ppm: 16.88 Ppm
[2]; [6]
  IC50: 100 µM
[1]; Antibody 245J15
  50% Inhibition at: ppm: 80.9 ppm
[1]; [4]
  % Crossreactivity: 0.074%
[1]; Antibody 245J15, NNK amount for 50% inhibition divided by test compound amount, x100, listed as Nicotine (Acros)
  % Crossreactivity: 0.034%
[1]; Antibody 245J15, listed as Nicotine (Acros)
  50% Inhibition at: ppm: 178.9 ppm
[1]; Antibody 245J15, listed as Nicotine (Acros), read-out: 50% Inhibition at: M
  IC50: 1100 µM
[1]; [5]
  IC50: 500 µM

## O=C(O)C1CCCNC1 (centres unmarked) [Nipecotic Acid]
[1]; Antibody 245J15
  50% Inhibition at: ppm: 24193.5 ppm

## c1cncc([C@@H]2CCCN2)c1 [Nornicotine]
[2]; 0.5 B/Bo
  50% Inhibition at: Ppm: >200 Ppm
[2]; [6]
  IC50: > 1000 µM
[2]
  % Crossreactivity: <0.0002%
[2]; [7]
  IC50: > 1000 µM
[1]; Antibody 245J15
  50% Inhibition at: ppm: 223.1 ppm
[1]; [4]
  % Crossreactivity: 0.027%
[1]; [5]
  IC50: 1500 µM
[1]; [8]
  IC50: 1500 µM

## C1CCNCC1 [Piperidine]
[1]; Antibody 245J15
  50% Inhibition at: ppm: 1300.3 ppm
[1]; [4]
  % Crossreactivity: 0.005%
[1]; [5]
  IC50: 15000 µM

## c1ccncc1 [Pyridine]
[1]
  50% Inhibition at: ppm: 946.9 ppm
  % Crossreactivity: 0.006%
[1]; read-out: 50% Inhibition at: M
  IC50: 12000 µM

## C1CCNC1 [Pyrrolidine]
[2]; [7]
  IC50: 20000 µM
[1]; [8]
  IC50: 20000 µM
